Test results as given in patent publication US20250223268A1, “4-Methylsulfonylbenzamide Compound, Preparation Method, Herbicidal Composition And Use” (Jiangsu Flag Chemical Industry Co., Ltd., priority 2022, published 2025).

Each compound was assayed on Oryza sativa subsp. indica (assay: Greenhouse herbicidal activity and crop safety comparison (Test Example 2)). Conditions: Rate 150 g/ha.
Format: in vivo
Outline: (§1)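 Fresh weight inhibition, banded into grades A to E (E <20%), was rated 14-21 days after foliar spraying of 3-6 leaf plants, or 14-30 days after a soil spray applied 24 h post-sowing.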
With `Cc1nnc(NC(=O)c2ccc(S(C)(=O)=O)c(S(=O)(=O)Cc3ccccc3)c2Cl)o1` [Compound 3-71] the “Oryza sativa subsp. indica, grading of fresh weight inhibition rate (crop safety)” value was “E (Fresh weight inhibition rate<20%)”.
With `Cc1nnc(NC(=O)c2ccc(S(C)(=O)=O)c(S(=O)(=O)C3CCCCC3)c2Cl)o1` [Compound 3-96] the “Oryza sativa subsp. indica, grading of fresh weight inhibition rate (crop safety)” value was “E (Fresh weight inhibition rate<20%)”.
With `Cc1nnc(NC(=O)c2ccc(S(C)(=O)=O)c(S(=O)(=O)CCC#N)c2Cl)o1` [Compound 3-201] the “Oryza sativa subsp. indica, grading of fresh weight inhibition rate (crop safety)” value was “E (Fresh weight inhibition rate<20%)”.
With `CCc1nnc(NC(=O)c2ccc(S(C)(=O)=O)c(S(=O)(=O)CC(F)(F)F)c2Cl)o1` [Compound 3-443] the “Oryza sativa subsp. indica, grading of fresh weight inhibition rate (crop safety)” value was “E (Fresh weight inhibition rate<20%)”.
For `CS(=O)(=O)c1ccc(C(=O)Nc2nnc(C3CC3)o2)c(Cl)c1S(=O)(=O)C1CCC1` [Compound 3-660], the “Oryza sativa subsp. indica, grading of fresh weight inhibition rate (crop safety)” value was “E (Fresh weight inhibition rate<20%)”.

These compounds were tested on Oryza sativa subsp. japonica in the same assay as above. Conditions: Rate 150 g/ha.
Format: in vivo
Outline: as §1
For `Cc1nnc(NC(=O)c2ccc(S(C)(=O)=O)c(S(=O)(=O)Cc3ccccc3)c2Cl)o1` [Compound 3-71], the “Oryza sativa subsp. japonica, grading of fresh weight inhibition rate (crop safety)” value was “E (Fresh weight inhibition rate<20%)”.
In the case of `Cc1nnc(NC(=O)c2ccc(S(C)(=O)=O)c(S(=O)(=O)C3CCCCC3)c2Cl)o1` [Compound 3-96], the “Oryza sativa subsp. japonica, grading of fresh weight inhibition rate (crop safety)” value is reported as “E (Fresh weight inhibition rate<20%)”.
With `Cc1nnc(NC(=O)c2ccc(S(C)(=O)=O)c(S(=O)(=O)CCC#N)c2Cl)o1` [Compound 3-201] the “Oryza sativa subsp. japonica, grading of fresh weight inhibition rate (crop safety)” value was “E (Fresh weight inhibition rate<20%)”.
With `CCc1nnc(NC(=O)c2ccc(S(C)(=O)=O)c(S(=O)(=O)CC(F)(F)F)c2Cl)o1` [Compound 3-443] the “Oryza sativa subsp. japonica, grading of fresh weight inhibition rate (crop safety)” value was “E (Fresh weight inhibition rate<20%)”.
With `CS(=O)(=O)c1ccc(C(=O)Nc2nnc(C3CC3)o2)c(Cl)c1S(=O)(=O)C1CCC1` [Compound 3-660] the “Oryza sativa subsp. japonica, grading of fresh weight inhibition rate (crop safety)” value was “E (Fresh weight inhibition rate<20%)”.

Each compound was assayed on Echinochloa crusgalli in the same assay as above. Conditions: Rate 150 g/ha.
Format: in vivo
Outline: as §1
With `Cc1nnc(NC(=O)c2ccc(S(C)(=O)=O)c(S(=O)(=O)Cc3ccccc3)c2Cl)o1` [Compound 3-71] the “Echinochloa crusgalli, control efficacy grading (fresh weight inhibition rate)” value was “C (Fresh weight inhibition rate≥40% to <60%)”.
For `Cc1nnc(NC(=O)c2ccc(S(C)(=O)=O)c(S(=O)(=O)C3CCCCC3)c2Cl)o1` [Compound 3-96], the “Echinochloa crusgalli, control efficacy grading (fresh weight inhibition rate)” value was “C (Fresh weight inhibition rate≥40% to <60%)”.
With `Cc1nnc(NC(=O)c2ccc(S(C)(=O)=O)c(S(=O)(=O)CCC#N)c2Cl)o1` [Compound 3-201] the “Echinochloa crusgalli, control efficacy grading (fresh weight inhibition rate)” value was “C (Fresh weight inhibition rate≥40% to <60%)”.
With `CCc1nnc(NC(=O)c2ccc(S(C)(=O)=O)c(S(=O)(=O)CC(F)(F)F)c2Cl)o1` [Compound 3-443] the “Echinochloa crusgalli, control efficacy grading (fresh weight inhibition rate)” value was “C (Fresh weight inhibition rate≥40% to <60%)”.
With `CS(=O)(=O)c1ccc(C(=O)Nc2nnc(C3CC3)o2)c(Cl)c1S(=O)(=O)C1CCC1` [Compound 3-660] the “Echinochloa crusgalli, control efficacy grading (fresh weight inhibition rate)” value was “C (Fresh weight inhibition rate≥40% to <60%)”.

The compounds below were run on Leptochloa chinensis in the same assay as above. Conditions: Rate 150 g/ha.
Format: in vivo
Outline: as §1
With `Cc1nnc(NC(=O)c2ccc(S(C)(=O)=O)c(S(=O)(=O)Cc3ccccc3)c2Cl)o1` [Compound 3-71] the “Leptochloa chinensis, control efficacy grading (fresh weight inhibition rate)” value was “A (Fresh weight inhibition rate≥80% to 100%)”.
In the case of `Cc1nnc(NC(=O)c2ccc(S(C)(=O)=O)c(S(=O)(=O)C3CCCCC3)c2Cl)o1` [Compound 3-96], the “Leptochloa chinensis, control efficacy grading (fresh weight inhibition rate)” value is reported as “A (Fresh weight inhibition rate≥80% to 100%)”.
For `Cc1nnc(NC(=O)c2ccc(S(C)(=O)=O)c(S(=O)(=O)CCC#N)c2Cl)o1` [Compound 3-201], the “Leptochloa chinensis, control efficacy grading (fresh weight inhibition rate)” value was “A (Fresh weight inhibition rate≥80% to 100%)”.
With `CCc1nnc(NC(=O)c2ccc(S(C)(=O)=O)c(S(=O)(=O)CC(F)(F)F)c2Cl)o1` [Compound 3-443] the “Leptochloa chinensis, control efficacy grading (fresh weight inhibition rate)” value was “A (Fresh weight inhibition rate≥80% to 100%)”.
In the case of `CS(=O)(=O)c1ccc(C(=O)Nc2nnc(C3CC3)o2)c(Cl)c1S(=O)(=O)C1CCC1` [Compound 3-660], the “Leptochloa chinensis, control efficacy grading (fresh weight inhibition rate)” value is reported as “A (Fresh weight inhibition rate≥80% to 100%)”.

What follows are compounds tested on Eclipta prostrata (assay: Greenhouse herbicidal activity assay, post-emergence). Conditions: Post-emergence test, rate 150 g a.i./hm^2; grade by fresh weight inhibition rate.
Format: in vivo
Outline: (§2)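 Foliar spray at 3-6 leaves; pot-grown in nutrient soil in growth chamber; air-dried post-spray. Read-out at 14-21 d: fresh weight inhibition, graded A (≥80% to 100%) down to E (<20%); NT = not tested.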
For `Cc1nnc(NC(=O)c2ccc(S(C)(=O)=O)c(S(=O)(=O)Cc3ccccc3)c2Cl)o1` [Compound 3-71], the “Control efficacy grade, Eclipta prostrata” value was “A (Fresh weight inhibition rate≥80% to 100%)”.
`Cc1nnc(NC(=O)c2ccc(S(C)(=O)=O)c(S(=O)(=O)C3CCCCC3)c2Cl)o1` [Compound 3-96] was tested, and the “Control efficacy grade, Eclipta prostrata” value was “A (Fresh weight inhibition rate≥80% to 100%)”.
`Cc1nnc(NC(=O)c2ccc(S(C)(=O)=O)c(S(=O)(=O)CCC#N)c2Cl)o1` [Compound 3-201] was tested, and the “Control efficacy grade, Eclipta prostrata” value was “A (Fresh weight inhibition rate≥80% to 100%)”.
`CCc1nnc(NC(=O)c2ccc(S(C)(=O)=O)c(S(=O)(=O)CC(F)(F)F)c2Cl)o1` [Compound 3-443] was tested, and the “Control efficacy grade, Eclipta prostrata” value was “A (Fresh weight inhibition rate≥80% to 100%)”.
In the case of `CS(=O)(=O)c1ccc(C(=O)Nc2nnc(C3CC3)o2)c(Cl)c1S(=O)(=O)C1CCC1` [Compound 3-660], the “Control efficacy grade, Eclipta prostrata” value is reported as “A (Fresh weight inhibition rate≥80% to 100%)”.

What follows are compounds tested on Cyperus iria in the same assay as above. Conditions: Post-emergence test, rate 150 g a.i./hm^2; grade by fresh weight inhibition rate.
Format: in vivo
Outline: as §2
For `Cc1nnc(NC(=O)c2ccc(S(C)(=O)=O)c(S(=O)(=O)Cc3ccccc3)c2Cl)o1` [Compound 3-71], the “Control efficacy grade, Cyperus iria” value was “A (Fresh weight inhibition rate≥80% to 100%)”.
With `Cc1nnc(NC(=O)c2ccc(S(C)(=O)=O)c(S(=O)(=O)C3CCCCC3)c2Cl)o1` [Compound 3-96] the “Control efficacy grade, Cyperus iria” value was “A (Fresh weight inhibition rate≥80% to 100%)”.
`Cc1nnc(NC(=O)c2ccc(S(C)(=O)=O)c(S(=O)(=O)CCC#N)c2Cl)o1` [Compound 3-201] was tested, and the “Control efficacy grade, Cyperus iria” value was “A (Fresh weight inhibition rate≥80% to 100%)”.
`CCc1nnc(NC(=O)c2ccc(S(C)(=O)=O)c(S(=O)(=O)CC(F)(F)F)c2Cl)o1` [Compound 3-443] was tested, and the “Control efficacy grade, Cyperus iria” value was “A (Fresh weight inhibition rate≥80% to 100%)”.
In the case of `CS(=O)(=O)c1ccc(C(=O)Nc2nnc(C3CC3)o2)c(Cl)c1S(=O)(=O)C1CCC1` [Compound 3-660], the “Control efficacy grade, Cyperus iria” value is reported as “A (Fresh weight inhibition rate≥80% to 100%)”.

The compounds below were run on Leptochloa chinensis in the same assay as above. Conditions: Post-emergence test, rate 150 g a.i./hm^2; grade by fresh weight inhibition rate.
Format: in vivo
Outline: as §2
With `Cc1nnc(NC(=O)c2ccc(S(C)(=O)=O)c(S(=O)(=O)Cc3ccccc3)c2Cl)o1` [Compound 3-71] the “Control efficacy grade, Leptochloa chinensis” value was “A (Fresh weight inhibition rate≥80% to 100%)”.
`Cc1nnc(NC(=O)c2ccc(S(C)(=O)=O)c(S(=O)(=O)C3CCCCC3)c2Cl)o1` [Compound 3-96] was tested, and the “Control efficacy grade, Leptochloa chinensis” value was “A (Fresh weight inhibition rate≥80% to 100%)”.
In the case of `Cc1nnc(NC(=O)c2ccc(S(C)(=O)=O)c(S(=O)(=O)CCC#N)c2Cl)o1` [Compound 3-201], the “Control efficacy grade, Leptochloa chinensis” value is reported as “A (Fresh weight inhibition rate≥80% to 100%)”.
For `CCc1nnc(NC(=O)c2ccc(S(C)(=O)=O)c(S(=O)(=O)CC(F)(F)F)c2Cl)o1` [Compound 3-443], the “Control efficacy grade, Leptochloa chinensis” value was “A (Fresh weight inhibition rate≥80% to 100%)”.
For `CS(=O)(=O)c1ccc(C(=O)Nc2nnc(C3CC3)o2)c(Cl)c1S(=O)(=O)C1CCC1` [Compound 3-660], the “Control efficacy grade, Leptochloa chinensis” value was “A (Fresh weight inhibition rate≥80% to 100%)”.
